According to ChEMBL document CHEMBL3046561, “Feeding deterrents from Dictamnus dasycarpus Turcz against two stored-product insects” (J Agric Food Chem, 2002):

Assays:
Tribolium castaneum [1] = assay: Antifeedant activity against adult of Tribolium castaneum (red flour beetle) assessed as mortality at 10 ppm after 3 days relative to control; format: functional; settings: 72 h
Tribolium castaneum [2] = assay: Antifeedant activity against adult of Tribolium castaneum (red flour beetle) assessed as mortality at 3 ppm after 3 days relative to control; format: functional; settings: 72 h
Tribolium castaneum [3] = assay: Antifeedant activity against larvae of Tribolium castaneum (red flour beetle) assessed as mortality at 30 ppm after 3 days relative to control; format: functional; settings: 72 h
Tribolium castaneum [4] = assay: Antifeedant activity against adult of Tribolium castaneum (red flour beetle) assessed as mortality at 30 ppm after 3 days relative to control; format: functional; settings: 72 h
Tribolium castaneum [5] = assay: Antifeedant activity against larvae of Tribolium castaneum (red flour beetle) assessed as efficiency of conversion of ingested food at 300 ppm after 3 days relative to control; settings: Instar larval stage, 72 h
Sitophilus zeamais [6] = assay: Antifeedant activity against adult of Sitophilus zeamais assessed as mortality at 3 ppm after 3 days relative to control; format: functional; settings: 72 h
Tribolium castaneum [7] = assay: Antifeedant activity against larvae of Tribolium castaneum (red flour beetle) assessed as efficiency of conversion of ingested food at 100 ppm after 3 days relative to control; format: functional, Instar larval stage
Tribolium castaneum [8] = assay: Antifeedant activity against larvae of Tribolium castaneum (red flour beetle) assessed as feeding deterrence index at 300 ppm after 3 days relative to control; format: functional
Tribolium castaneum [9] = assay: Antifeedant activity against larvae of Tribolium castaneum (red flour beetle) assessed as feeding deterrence index at 100 ppm after 3 days relative to control; format: functional
Sitophilus zeamais [10] = assay: Antifeedant activity against adult of Sitophilus zeamais assessed as feeding deterrence index at 3 ppm after 3 days relative to control; format: functional
Tribolium castaneum [11] = assay: Antifeedant activity against adult of Tribolium castaneum (red flour beetle) assessed as relative growth rate at 300 ppm after 3 days relative to control; format: functional
Sitophilus zeamais [12] = assay: Antifeedant activity against adult of Sitophilus zeamais assessed as relative growth rate at 10 ppm after 3 days relative to control; format: functional
Tribolium castaneum [13] = assay: Antifeedant activity against adult of Tribolium castaneum (red flour beetle) assessed as efficiency of conversion of ingested food at 30 ppm after 3 days relative to control; format: functional
Tribolium castaneum [14] = assay: Antifeedant activity against adult of Tribolium castaneum (red flour beetle) assessed as efficiency of conversion of ingested food at 10 ppm after 3 days relative to control; format: functional
Tribolium castaneum [15] = assay: Antifeedant activity against adult of Tribolium castaneum (red flour beetle) assessed as efficiency of conversion of ingested food at 3 ppm after 3 days relative to control; format: functional
Sitophilus zeamais [16] = assay: Antifeedant activity against adult of Sitophilus zeamais assessed as efficiency of conversion of ingested food at 300 ppm after 3 days relative to control; format: functional
Sitophilus zeamais [17] = assay: Antifeedant activity against adult of Sitophilus zeamais assessed as efficiency of conversion of ingested food at 3 ppm after 3 days relative to control; format: functional
Tribolium castaneum [18] = assay: Antifeedant activity against larvae of Tribolium castaneum (red flour beetle) assessed as relative consumption rate at 100 ppm after 3 days relative to control; format: functional
Tribolium castaneum [19] = assay: Antifeedant activity against larvae of Tribolium castaneum (red flour beetle) assessed as relative consumption rate at 3 ppm after 3 days relative to control; format: functional
Tribolium castaneum [20] = assay: Antifeedant activity against larvae of Tribolium castaneum (red flour beetle) assessed as relative consumption rate at 10 ppm after 3 days relative to control; format: functional
Tribolium castaneum [21] = assay: Antifeedant activity against adult of Tribolium castaneum (red flour beetle) assessed as relative consumption rate at 30 ppm after 3 days relative to control; format: functional
Sitophilus zeamais [22] = assay: Antifeedant activity against adult of Sitophilus zeamais assessed as relative consumption rate at 100 ppm after 3 days relative to control; format: functional
Sitophilus zeamais [23] = assay: Antifeedant activity against adult of Sitophilus zeamais assessed as relative consumption rate at 10 ppm after 3 days relative to control; format: functional
Tribolium castaneum [24] = assay: Antifeedant activity against larvae of Tribolium castaneum (red flour beetle) assessed as relative growth rate at 300 ppm after 3 days relative to control; format: functional
Tribolium castaneum [25] = assay: Antifeedant activity against larvae of Tribolium castaneum (red flour beetle) assessed as relative growth rate at 3 ppm after 3 days relative to control; format: functional
Tribolium castaneum [26] = assay: Antifeedant activity against adult of Tribolium castaneum (red flour beetle) after 3 days; format: functional, organism-based
Tribolium castaneum [27] = assay: Antifeedant activity against larvae of Tribolium castaneum (red flour beetle) after 3 days; format: functional, organism-based
Sitophilus zeamais [28] = assay: Antifeedant activity against adult of Sitophilus zeamais after 3 days; format: functional, organism-based
Tribolium castaneum [29] = assay: Antifeedant activity against adult of Tribolium castaneum (red flour beetle) assessed as relative growth rate at 30 ppm after 3 days relative to control; format: functional
Tribolium castaneum [30] = assay: Antifeedant activity against larvae of Tribolium castaneum (red flour beetle) assessed as relative growth rate at 100 ppm after 3 days relative to control; format: functional

Structure (SMILES)	mortality at 10 ppm (Tribolium castaneum [1]) [%]	mortality at 3 ppm (Tribolium castaneum [2]) [%]	mortality at 30 ppm (Tribolium castaneum [3]) [%]	mortality at 30 ppm (Tribolium castaneum [4]) [%]	mortality at 3 ppm (Sitophilus zeamais [6]) [%]	Activity (Tribolium castaneum [7]) [%]	FDI (Tribolium castaneum [8]) [%]	FDI (Tribolium castaneum [9]) [%]	FDI (Sitophilus zeamais [10]) [%]	Activity (Tribolium castaneum [11]) [µg/mg/day]	Activity (Sitophilus zeamais [12]) [µg/mg/day]	Activity (Tribolium castaneum [13]) [%]	Activity (Tribolium castaneum [14]) [%]	Activity (Tribolium castaneum [15]) [%]	Activity (Sitophilus zeamais [16]) [%]	Activity (Sitophilus zeamais [17]) [%]	Activity (Tribolium castaneum [18]) [µg/mg/day]	Activity (Tribolium castaneum [19]) [µg/mg/day]	Activity (Tribolium castaneum [20]) [µg/mg/day]	Activity (Tribolium castaneum [21]) [µg/mg/day]	also measured
COc1c2ccccc2nc2occc12 [DICTAMNINE]	0	0	0	0	0	17.43	82.21	64.42	9.69	6.45	14.32	18.35	19.91	21.25	6.81	9.1	123.74	254.2	213.17	101.27	mortality at 300 ppm (Tribolium castaneum [5]): 13.2%; Activity (Sitophilus zeamais [22]): 52.65 µg/mg/day; Activity (Sitophilus zeamais [23]): 110.95 µg/mg/day; Activity (Tribolium castaneum [24]): 7.08 µg/mg/day; Activity (Tribolium castaneum [25]): 52.88 µg/mg/day
CC1=C2C(=O)O[C@@H](c3ccoc3)[C@]2(C)CCC1 [FRAXINELLONE]	0	0	0	0	0	13.65	95.68	72.76	2.92	1.48	13.29	19.1	21.98	21.68	6.56	11.41	127.99	233.06	198.13	83.91	EC50 (Tribolium castaneum [26]): 36.4 ppm; EC50 (Tribolium castaneum [27]): 29.1 ppm; EC50 (Sitophilus zeamais [28]): 71.2 ppm; Activity (Tribolium castaneum [29]): 19.84 µg/mg/day; Activity (Sitophilus zeamais [22]): 79.29 µg/mg/day; Activity (Sitophilus zeamais [23]): 120.27 µg/mg/day; Activity (Tribolium castaneum [30]): 11.71 µg/mg/day; Activity (Tribolium castaneum [24]): -8.44 µg/mg/day; Activity (Tribolium castaneum [25]): 52.62 µg/mg/day
